Results on 1 molecule are retold here after patent publication US20220064238A1, “Methods And Compositions For Modifying Transcription Factor Activity by Targeting The Human Mediator Complex Using Cell Penetrating Memetic Peptides And Methods of Treating Cancer Using The Same” (The Regents of the University of Colorado, a body corporate, priority 2020, published 2022).

pIC50: −log10 of the molar value. Bridge positions count the residues as written; N and C are the ends. Square brackets hold non-standard residues; d marks the D form. Peptide text beside a SMILES is read from it. PEG6 = NCCOCCOCCOCCOCCOCCOCCC(=O)O; R8 = C=CCCCCCC[C@@](C)(N)C(=O)O; S5 = C=CCCC[C@](C)(N)C(=O)O

In this test the test system is Gal4-VP16 / Mediator. Briefly: In vitro transcription on chromatin templates activated by Gal4-VP16. In kind it is biochemical, human. The settings on record: read-out: IC50, transcription in the presence of Gal4-VP16. An excerpt: Finally, we assessed whether the bivalent peptide would selectively block p53-dependent transcription compared with VP16, a viral activation domain. Whereas p53 and VP16 both interact with Mediator, they do so through different subunits (MED17 and MED25, respectively).
In vitro transcription: Chromatinized templates and in vitro transcription assays were generated and completed as described (Knuesel et al., 2009). Briefly, each activator (GAL4-p53AD or GAL4-VP16AD) was titrated to yield maximum transcription. While the activator bound the template, the general transcription factors (GTFs) were mixed in 0.1 M HEMG (10 mM HEPES pH 7.6, 100 mM KCl, 0.1 mM EDTA, 10% glycerol, 5.5 mM MgCl2) to give approximate final concentrations of 40 nM TFIIA, 10 nM IIB, 0.8 nM TFIID, 10 nM TFIIE, 10 nM TFIIF, 0.5 nM TFIIH and 2 nM pol II. A non-limiting amount of Mediator was then diluted in a separate salts mix (10 mM HEPES pH 7.6, 100 mM KCl, 2.5% PVA, 2.5% PEG, 7.5 mM MgCl2), along with 400 U of RNAseOUT, about 300 ng PC4 and about 300 ng HMGB1. On ice, the desired concentration of peptide was then added to the Mediator mix, followed by the GTF mix at a 5:11 ratio. The GTFs, Mediator and peptide were then incubated at least 5 minutes at 30° C. […]

Turning to `CC[C@H](C)[C@H](NC(=O)[C@H](CC(=O)O)NC(=O)[C@H](CC(=O)O)NC(=O)[C@@H]1CCCN1C(=O)[C@H](CO)NC(=O)[C@H](CC(C)C)NC(=O)CCOCCOCCOCCOCCOCCOCCNC(=O)[C@H](CCCNC(=N)N)NC(=O)[C@H](CCCNC(=N)N)NC(=O)[C@]1(C)CCCC=CCCCCCC[C@@](C)(NC(=O)[C@H](Cc2ccccc2)NC(=O)[C@H](CCCNC(=N)N)NC(=O)[C@H](CCC(=O)O)NC(=O)[C@H](CCC(N)=O)NC(=O)[C@H](CO)NC(=O)[C@H](CCCNC(=N)N)NC(C)=O)C(=O)N[C@@H](CC(=O)O)C(=O)N[C@@H](CC(C)C)C(=O)N[C@@H](Cc2c[nH]c3ccccc23)C(=O)N[C@@H](CCCCN)C(=O)N[C@@H](CCCNC(=N)N)C(=O)N[C@@H](CC(C)C)C(=O)N1)C(=O)N[C@@H](CCC(=O)O)C(=O)N[C@@H](CCC(N)=O)C(=O)N[C@@H](Cc1c[nH]c2ccccc12)C(=O)N[C@@H](Cc1ccccc1)C(=O)N[C@H](C(=O)N[C@@H](CCC(=O)O)C(=O)N[C@@H](CC(=O)O)C(N)=O)[C@@H](C)O` [bivalent peptide] (Ac-RSQERF[R8]DLWKRL[S5]RR[PEG6]LSPDDIEQWFTED-NH2; staple 7-14; N-terminus assumed), the pIC50 was 6.37.

In general, pIC50 refers to the IC50 on a negative log10 scale, so that one unit is a factor of ten.
